This assay deals with T1, αvβ1 integrin (UniProt G3HZ55+P06756).
T1 construct: expressed in transfected cells; host or cells: CHO cells (elsewhere described as α5-deficient CHO) transfected with human αv
T1 sequence (P06756 31-889 limits assumed): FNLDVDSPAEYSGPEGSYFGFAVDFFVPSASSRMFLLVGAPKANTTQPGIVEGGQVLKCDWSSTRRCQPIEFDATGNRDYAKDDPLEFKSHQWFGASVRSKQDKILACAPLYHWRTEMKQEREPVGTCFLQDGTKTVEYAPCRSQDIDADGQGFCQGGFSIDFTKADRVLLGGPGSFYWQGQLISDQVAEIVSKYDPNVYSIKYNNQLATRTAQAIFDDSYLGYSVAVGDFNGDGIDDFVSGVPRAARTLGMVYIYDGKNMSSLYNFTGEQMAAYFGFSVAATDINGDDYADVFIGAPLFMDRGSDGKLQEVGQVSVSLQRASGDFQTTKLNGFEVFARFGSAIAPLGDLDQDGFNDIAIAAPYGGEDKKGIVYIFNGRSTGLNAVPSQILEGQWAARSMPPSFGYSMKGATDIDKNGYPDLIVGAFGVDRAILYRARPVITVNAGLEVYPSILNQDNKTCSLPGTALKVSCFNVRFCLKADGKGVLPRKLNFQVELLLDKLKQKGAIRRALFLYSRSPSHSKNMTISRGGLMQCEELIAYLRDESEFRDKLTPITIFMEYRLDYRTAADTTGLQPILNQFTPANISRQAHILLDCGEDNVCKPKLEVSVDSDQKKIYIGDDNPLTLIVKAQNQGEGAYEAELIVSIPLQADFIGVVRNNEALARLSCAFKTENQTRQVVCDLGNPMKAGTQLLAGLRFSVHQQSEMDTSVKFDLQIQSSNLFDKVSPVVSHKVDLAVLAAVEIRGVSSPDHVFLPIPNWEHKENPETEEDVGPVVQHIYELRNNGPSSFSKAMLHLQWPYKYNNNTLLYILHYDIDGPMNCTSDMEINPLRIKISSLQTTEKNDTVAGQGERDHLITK
T1 sequence (P06756 891-1048 limits assumed): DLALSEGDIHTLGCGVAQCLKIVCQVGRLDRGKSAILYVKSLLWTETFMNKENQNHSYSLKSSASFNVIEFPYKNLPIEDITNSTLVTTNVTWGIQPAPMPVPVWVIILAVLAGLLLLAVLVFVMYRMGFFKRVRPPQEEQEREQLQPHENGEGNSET
T1 sequence (G3HZ55 21-798): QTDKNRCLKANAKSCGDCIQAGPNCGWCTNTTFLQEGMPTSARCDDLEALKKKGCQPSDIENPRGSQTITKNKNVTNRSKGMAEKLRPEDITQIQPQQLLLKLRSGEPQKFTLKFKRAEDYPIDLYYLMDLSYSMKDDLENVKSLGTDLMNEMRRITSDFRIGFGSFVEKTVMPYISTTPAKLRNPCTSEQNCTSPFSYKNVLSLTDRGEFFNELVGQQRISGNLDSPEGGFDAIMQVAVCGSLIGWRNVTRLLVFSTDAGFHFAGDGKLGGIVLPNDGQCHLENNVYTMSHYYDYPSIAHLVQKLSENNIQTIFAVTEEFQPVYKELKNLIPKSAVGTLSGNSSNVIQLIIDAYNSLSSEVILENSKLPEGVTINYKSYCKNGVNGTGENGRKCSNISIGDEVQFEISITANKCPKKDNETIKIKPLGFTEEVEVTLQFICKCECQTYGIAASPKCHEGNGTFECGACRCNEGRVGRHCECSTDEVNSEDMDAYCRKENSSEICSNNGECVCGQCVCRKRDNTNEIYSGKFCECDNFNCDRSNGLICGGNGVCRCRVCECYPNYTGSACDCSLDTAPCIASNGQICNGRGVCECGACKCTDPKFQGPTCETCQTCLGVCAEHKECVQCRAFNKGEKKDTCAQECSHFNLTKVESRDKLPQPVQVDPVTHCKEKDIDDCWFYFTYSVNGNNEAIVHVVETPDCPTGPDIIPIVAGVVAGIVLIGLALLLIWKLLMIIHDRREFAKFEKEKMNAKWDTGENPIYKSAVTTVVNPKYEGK
The assay can be described thus: Cell Adhesion Assay (integrin-specific adhesion, αvβ1). Type of assay: cell-based. The conditions noted are these: CHO cells transfected with human αv adhering to 0.3 μg/ml fibronectin; read-out: Cell Adhesion Assay IC50 range. How it is done: The effects of compounds on cell adhesion mediated by […], α8β1, αvβ1, αvβ3, αvβ5, αvβ6, and αvβ8 are measured using pairs of cell lines and ligands selected to isolate the effect of each individual integrin. For α5β1 we utilize the colon carcinoma cell line, SW480, plated on 0.3 μg/ml fibronectin, for α8β1, we utilize SW480 cells transfected with human α8 adhering to 1 μg/ml recombinant TGFβ1 LAP [5], for αvβ1 we use Chinese Hamster Ovary Cells (CHO cells) transfected with human αv adhering to 0.3 μg/ml fibronectin [6], for αvβ3 we use SW480 cells transfected with human β3, for αvβ5 we use wild type SW480 cells adhering to 0.1 μg/ml vitronectin. For αvβ6 we use SW480 cells transfected with human β6 adhering to 0.01 μg/ml recombinant human TGFβ1 LAP. For αvβ8 we use glioma cell line (SNB19) expressing β8 adhering to 1 μg/ml recombinant human TGFβ1 LAP.
(§1) The effects of the compound on cell adhesion mediated by αvβ1 integrin were measured using Chinese Hamster Ovary Cells (CHO cells) transfected with human αv adhering to 0.3 μg/ml fibronectin. In every case, we confirmed that adhesion could be inhibited by blocking antibodies to αv and β1. Cells were resuspended in DMEM for 30 min at 4° C. with 10-fold dilutions of the compound with a starting concentration of 10 μM. Each sample was then added to triplicate wells of a 96-well plate which had been coated overnight at 4° C. with the relevant ligand, washed, blocked by 1 hr incubation with 1% BSA, and washed again. Cells were allowed to attach for 30-60 min at 37° C. After incubation, non-adherent cells were removed by discarding the media and spinning the plate top-side down at 500 rpm for 5 minutes. Cells were then fixed and stained with 40 ul of 0.5% Crystal violet, 1% Formaldehyde, 20% Methanol for 30 minutes and lysed with 2% Trition-X. Absorbance was measured at 595 nm in a Microplate reader. For all assays, concentration-response curves were constructed by non-linear regression analysis and IC50 values using Graphpad PRISM (ver 6.0).
as §1, with “Integrin specific” for “effects of the compound on cell”, “assays” for “mediated by αvβ1 integrin”, “In every case, we confirmed that adhesion could be inhibited by blocking antibodies to αv and β1.” left out
In the case of `N=C(N)Nc1ccc2c(c1)C(=O)N(c1ccc(C[C@H](NC(=O)c3c(Cl)cccc3Cl)C(=O)O)cc1)CC2` [JM-175], the IC50 was in the range of 0.1 to 10 µM.

In the case of `O=C(CCc1ccc2c(n1)NCCC2)Nc1ccc(C[C@H](NC(=O)c2c(Cl)cccc2Cl)C(=O)O)cc1` [YT-119], the half-maximal inhibitory concentration (IC50) was below 0.1 µM.

In the case of `O=C(N[C@@H](Cc1ccc(-n2cc(CNc3ccccn3)nn2)cc1)C(=O)O)c1c(Cl)cccc1Cl` [JM-230], the concentration for half-maximal inhibition (IC50) was in the range of 0.1 to 10 µM.

For `O=C(CCCCNC1=NCCN1)Nc1ccc(C[C@H](NC(=O)c2c(Cl)cccc2Cl)C(=O)O)cc1` [JM-61], the IC50 lay in the range of 0.1 to 10 µM.

With `COc1cccc(OC)c1C(=O)N[C@@H](Cc1ccc(NC(=O)CCCNc2ccccn2)cc1)C(=O)O` [HIJ-886, (S)-2-(2,6-dimethoxybenzamido)-3-(4-(4-(pyridin-2-ylamino)butanamido)phenyl)propanoic acid], the IC50 is 0.1 to 10 µM.

For `N=C(N)NCCc1cn(-c2ccc(C[C@H](NC(=O)c3c(Cl)cccc3Cl)C(=O)O)cc2)nn1` [JM-39, (S)-2-(2,6-dichlorobenzamido)-3-(4-(4-(2-guanidinoethyl)-1H-1,2,3-triazol-1-yl)phenyl)propanoic acid], the IC50 lay within 0.1 to 10 µM.

As to `CSc1ccccc1C(=O)N[C@@H](Cc1ccc(NC(=O)CCCNc2ccccn2)cc1)C(=O)O` [HIJ-891, (S)-2-(2-(methylthio)benzamido)-3-(4-(4-(pyridin-2-ylamino)butanamido)phenyl)propanoic acid], the concentration for half-maximal inhibition (IC50) fell in the range of 0.1 to 10 µM.

Turning to `N=C(N)NCCCn1cc(-c2ccc(C[C@H](NC(=O)c3c(Cl)cccc3Cl)C(=O)O)cc2)nn1` [JM-141], the 50% inhibitory concentration (IC50) was below 0.1 µM.

For `O=C(CCCNc1ccccn1)Nc1ccc(C[C@H](NC(=O)c2c(F)cccc2Br)C(=O)O)cc1` [HIJ-889, (S)-2-(2-bromo-6-fluorobenzamido)-3-(4-(4-(pyridin-2-ylamino)butanamido)phenyl)propanoic acid], the IC50 is below 0.1 µM.

As for `O=C(CCCNc1ccccn1)Nc1ccc(C[C@H](NC(=O)c2cccc(-c3ccccc3)c2)C(=O)O)cc1` [HIJ-892, (S)-2-([1,1′-biphenyl]-3-carboxamido)-3-(4-(4-(pyridin-2-ylamino)butanamido)phenyl)propanoic acid], the 50% inhibitory concentration (IC50) was in the range of 0.1 to 10 µM.

For the molecule `O=C(CCCc1ccc2c(n1)NCCC2)Nc1ccc(C[C@H](NC(=O)c2c(Cl)cccc2Cl)C(=O)O)cc1` [YT-101], the IC50 was in the range of 0.1 to 10 µM.

`Cc1ccnc(NCCCC(=O)Nc2ccc(C[C@H](NC(=O)c3c(Cl)cccc3Cl)C(=O)O)cc2)c1` [HU-899]: the IC50 is below 0.1 µM.

Consider `N=C(N)NCCCC(=O)Nc1ccc(C[C@H](NC(=O)c2c(Cl)cccc2Cl)C(=O)O)cc1` [YT-107], for which the IC50 is 0.1 to 10 µM.

Turning to `N=C(N)NCCCc1csc(-c2ccc(C[C@H](NC(=O)c3c(Cl)cccc3Cl)C(=O)O)cc2)n1` [JM-192], the IC50 fell in the range of 0.1 to 10 µM.

Turning to `N=C(N)NCCCc1coc(-c2ccc(C[C@H](NC(=O)c3c(Cl)cccc3Cl)C(=O)O)cc2)n1` [JM-185], the concentration for half-maximal inhibition (IC50) was 0.1 to 10 µM.

Take `Cc1cccc(Cl)c1C(=O)N[C@@H](Cc1ccc(NC(=O)CCCNc2ccccn2)cc1)C(=O)O` [HIJ-888, (S)-2-(2-chloro-6-methylbenzamido)-3-(4-(4-(pyridin-2-ylamino)butanamido)phenyl)propanoic acid]: the 50% inhibitory concentration (IC50) lay in the range of 0.1 to 10 µM.

Turning to `O=C(CCCNc1ccccn1)Nc1ccc(C[C@H](NC(=O)c2c(Cl)cccc2Cl)C(=O)O)cc1` [YT-103, (S)-2-(2,6-dichlorobenzamido)-3-(4-(4-(pyridin-2-ylamino)butanamido)phenyl)propanoic acid], the IC50 is below 0.1 µM.

Take `Cc1cccc(C)c1C(=O)N[C@@H](Cc1ccc(NC(=O)CCCNc2ccccn2)cc1)C(=O)O` [HIJ-890, (S)-2-(2,6-dimethylbenzamido)-3-(4-(4-(pyridin-2-ylamino)butanamido)phenyl)propanoic acid]: the IC50 was below 0.1 µM.

Regarding `O=C(CCCCNc1ccccn1)Nc1ccc(C[C@H](NC(=O)c2c(Cl)cccc2Cl)C(=O)O)cc1` [YT-43], the IC50 is 0.1 to 10 µM.

For `O=C(CCCCc1ccc2c(n1)NCCC2)Nc1ccc(C[C@H](NC(=O)c2c(Cl)cccc2Cl)C(=O)O)cc1` [YT-115], the IC50 lay in the range of 0.1 to 10 µM.

As a reminder, the IC50 is the concentration that inhibits the measured activity by half.

The record behind these values is patent US10214522B2, “Anti-alphavbeta1 integrin inhibitors and methods of use” (The Regents of the University of California, priority 2015, dated 2019).
